# Measurements taken from patent US20240384350A1, “METHODS OF TREATING CANCER WITH KINASE INHIBITORS” (BOARD OF REGENTS, THE UNIVERSITY OF TEXAS SYSTEM, priority 2021, published 2024).
# How the values were obtained:
# Test in all cases: Ba/F3 drug screening, Cell Titer Glo, IC50 Mut/WT
# Assay type in all cases: cell-based
# [1] = tested on: EGFR I740dupIPVAK; settings: PACC; I740dupIPVAK; Ba/F3; 72 hours
# [2] = biological target: T1, EGFR L858R T790M L718V (Homo sapiens, UniProt P00533, L718V/L858R/T790M); settings: T790M-like-3R, 72 hours
# T1 construct: expressed in transfected cells; host or cells: Ba/F3
# Protocol: (§1) Data represent the ratio of the IC50 value for a given TKI for cells with a T790M-like-3R EGFR mutation to the IC50 value for cells with wildtype EGFR.
# (§2) Ba/F3 cell generation, drug screening, and IC50 approximations. Ba/F3 cells were obtained as a gift from Dr. Gordon Mills (MD Anderson Cancer Center), and maintained in RPMI (Sigma) containing 10% FBS, 1% penicillin/streptomycin, and 10 ng/ml recombinant mIL-3 (R&D Biosystems). To establish stable Ba/F3 cell lines, Ba/F3 cells were transduced with retroviruses containing mutant EGFR plasmids for 12-24 hours.
# (§3) After 48-72 hours of transduction, 2 μg/ml puromycin (Invitrogen) was added to Ba/F3 cell lines in complete RPMI. To select for EGFR positive cell lines, cells were stained with PE-EGFR (Biolegend) and sorted by FACS. After sorting, EGFR positive cells were maintained in RPMI containing 10% FBS, 1% penicillin/streptomycin, and 1 ng/ml EGF to support cell viability. […] Shortly, cells were plated in 384-well plates (Greiner Bio-One) at 2000-3000 cells per well in technical triplicate. Seven different concentrations of TKIs or DMSO vehicle were added to reach a final volume of 40 μL per well. After 72 hours, 11 μL of Cell Titer Glo (Promega) was added to each well. Plates were incubated for a minimum of 10 minutes, and bioluminescence was determined using a FLUOstar OPTIMA plate reader (BMG LABTECH). Raw bioluminescence values were normalized to DMSO control treated cells, and values were plotted in GraphPad Prism. […] Drug screens were performed in technical triplicate on each plate and either duplicate or triplicate biological replicates. […] Statistical differences between groups were determined by ANOVA as described in the figure legends.
# [3] = biological target: T2, EGFR L858R/L718V (Homo sapiens, UniProt P00533, L718V/L858R); settings: PACC; L858R/L718V; Ba/F3; 72 hours
# T2 construct: host or cells: Ba/F3
# Protocol: (§4) Data represent the ratio of the IC50 value for a given TKI for cells with a PACC EGFR mutation to the IC50 value for cells with wildtype EGFR.
# as §2
# (§5) After 48-72 hours of transduction, 2 μg/ml puromycin (Invitrogen) was added to Ba/F3 cell lines in complete RPMI. To select for EGFR positive cell lines, cells were stained with PE-EGFR (Biolegend) and sorted by FACS. After sorting, EGFR positive cells were maintained in RPMI containing 10% FBS, 1% penicillin/streptomycin, and 1 ng/ml EGF to support cell viability. Drug screening was performed as previously described^41,42. Shortly, cells were plated in 384-well plates (Greiner Bio-One) at 2000-3000 cells per well in technical triplicate. Seven different concentrations of TKIs or DMSO vehicle were added to reach a final volume of 40 μL per well. After 72 hours, 11 μL of Cell Titer Glo (Promega) was added to each well. Plates were incubated for a minimum of 10 minutes, and bioluminescence was determined using a FLUOstar OPTIMA plate reader (BMG LABTECH). Raw bioluminescence values were normalized to DMSO control treated cells, and values were plotted in GraphPad Prism. […] Drug screens were performed in technical triplicate on each plate and either duplicate or triplicate biological replicates.
# [4] = biological target: T3, EGFR Ex19del L718Q (Homo sapiens, UniProt P00533, DEL746-750/L718Q); settings: PACC; Ex19del L718Q; Ba/F3; 72 hours
# T3 construct: expressed in transfected cells; host or cells: Ba/F3
# [5] = biological target: T4, EGFR L861R (Homo sapiens, UniProt P00533, L861R); settings: Classical-Like, 72 hours
# T4 construct: expressed in transfected cells; host or cells: Ba/F3 cells, retroviral pBabe-Puro vector (vector made by GeneScript from EGFR WT)
# [6] = biological target: T5, EGFR L718Q (Homo sapiens, UniProt P00533, L718Q); settings: PACC; L718Q; Ba/F3; 72 hours
# T5 construct: expressed in transfected cells; host or cells: Ba/F3
# Protocol: as §4, §2, §5
# [7] = biological target: T6, EGFR A763insLQEA (Homo sapiens, UniProt P00533, INS763LQEA); settings: Classical-Like, 72 hours
# T6 construct: expressed in transfected cells; host or cells: Ba/F3 cells, retroviral pBabe-Puro vector
# [8] = biological target: T7, EGFR Ex19del T790M (Homo sapiens, UniProt P00533, DEL746-750/T790M); settings: T790M-like-3S, 72 hours
# T7 construct: expressed in transfected cells; host or cells: Ba/F3
# [9] = biological target: T8, EGFR G719A L861Q (Homo sapiens, UniProt P00533, G719A/L861Q); settings: PACC; G719A L861Q; Ba/F3; 72 hours
# T8 construct: expressed in transfected cells; host or cells: Ba/F3
# [10] = biological target: T9, EGFR L833V (Homo sapiens, UniProt P00533, L833V); settings: Classical-Like, 72 hours
# T9 construct: expressed in transfected cells; host or cells: Ba/F3 cells, retroviral pBabe-Puro vector
# Protocol: (§6) Data represent the ratio of the IC50 value for a given TKI for cells with a classical-like EGFR mutation to the IC50 value for cells with wildtype EGFR.
# as §2
# (§7) After 48-72 hours of transduction, 2 μg/ml puromycin (Invitrogen) was added to Ba/F3 cell lines in complete RPMI. To select for EGFR positive cell lines, cells were stained with PE-EGFR (Biolegend) and sorted by FACS. After sorting, EGFR positive cells were maintained in RPMI containing 10% FBS, 1% penicillin/streptomycin, and 1 ng/ml EGF to support cell viability. […] Shortly, cells were plated in 384-well plates (Greiner Bio-One) at 2000-3000 cells per well in technical triplicate. Seven different concentrations of TKIs or DMSO vehicle were added to reach a final volume of 40 μL per well. After 72 hours, 11 μL of Cell Titer Glo (Promega) was added to each well. Plates were incubated for a minimum of 10 minutes, and bioluminescence was determined using a FLUOstar OPTIMA plate reader (BMG LABTECH). Raw bioluminescence values were normalized to DMSO control treated cells, and values were plotted in GraphPad Prism. […] Drug screens were performed in technical triplicate on each plate and either duplicate or triplicate biological replicates.
# [11] = biological target: T10, EGFR L858R/T790M/L718Q (Homo sapiens, UniProt P00533, L718Q/L858R/T790M); settings: T790M-like-3R, 72 hours
# T10 construct: expressed in transfected cells; host or cells: Ba/F3
# Protocol: as §1, §2, §3
# [12] = biological target: T11, EGFR G719A (Homo sapiens, UniProt P00533, G719A); settings: PACC; G719A; Ba/F3; 72 hours
# T11 construct: expressed in transfected cells; host or cells: Ba/F3
# [13] = biological target: T12, EGFR R776H (Homo sapiens, UniProt P00533, R776H); settings: PACC; R776H; Ba/F3; 72 hours
# T12 construct: host or cells: Ba/F3
# [14] = biological target: T13, EGFR Ex19del G796S (Homo sapiens, UniProt P00533, DEL746-750/G796S); settings: PACC; Ex19del G796S; Ba/F3; 72 hours
# T13 construct: expressed in transfected cells; host or cells: Ba/F3
# Protocol: as §4, §2, §5
# [15] = biological target: T14, EGFR D761N (Homo sapiens, UniProt P00533, D761N); settings: Classical-Like, 72 hours
# T14 construct: expressed in transfected cells; host or cells: Ba/F3 cells, retroviral pBabe-Puro vector
# Protocol: as §6, §2, §7
# [16] = biological target: T15, EGFR Ex19del T790M L718V (Homo sapiens, UniProt P00533, DEL746-750/L718V/T790M); settings: T790M-like-3S, 72 hours
# T15 construct: expressed in transfected cells; host or cells: Ba/F3
# [17] = biological target: T16, EGFR L747P (Homo sapiens, UniProt P00533, L747P); settings: PACC; L747P; Ba/F3; 72 hours
# T16 construct: expressed in transfected cells; host or cells: Ba/F3
# Protocol: as §4, §2
# After 48-72 hours of transduction, 2 μg/ml puromycin (Invitrogen) was added to Ba/F3 cell lines in complete RPMI. To select for EGFR positive cell lines, cells were stained with PE-EGFR (Biolegend) and sorted by FACS. After sorting, EGFR positive cells were maintained in RPMI containing 10% FBS, 1% penicillin/streptomycin, and 1 ng/ml EGF to support cell viability. Drug screening was performed as previously described^41,42. Shortly, cells were plated in 384-well plates (Greiner Bio-One) at 2000-3000 cells per well in technical triplicate. Seven different concentrations of TKIs or DMSO vehicle were added to reach a final volume of 40 μL per well. After 72 hours, 11 μL of Cell Titer Glo (Promega) was added to each well. Plates were incubated for a minimum of 10 minutes, and bioluminescence was determined using a FLUOstar OPTIMA plate reader (BMG LABTECH). Raw bioluminescence values were normalized to DMSO control treated cells, and values were plotted in GraphPad Prism. […] Drug screens were performed in technical triplicate on each plate and either duplicate or triplicate biological replicates. […] Statistical differences between groups were determined by ANOVA as described in the figure legends.
# [18] = biological target: T17, EGFR N771dupN G724S (Homo sapiens, UniProt P00533, DUP771-771/G724S); settings: Ex20, 72 hours
# T17 construct: expressed in transfected cells; host or cells: Ba/F3 cells, retroviral pBabe-Puro vector (vector made by GeneScript from EGFR G724S, c.2313_2314insAAC)
# [19] = biological target: T18, EGFR E709K (Homo sapiens, UniProt P00533, E709K); settings: PACC; E709K; Ba/F3; 72 hours
# T18 construct: expressed in transfected cells; host or cells: Ba/F3
# [20] = biological target: T19, EGFR S768I/V769L (Homo sapiens, UniProt P00533, S768I/V769L); settings: PACC; S768I/V769L; Ba/F3; 72 hours
# T19 construct: host or cells: Ba/F3
# [21] = biological target: T20, EGFR L747S (Homo sapiens, UniProt P00533, L747S); settings: PACC; L747S; Ba/F3; 72 hours
# T20 construct: expressed in transfected cells; host or cells: Ba/F3
# [22] = biological target: T21, EGFR T790M (Homo sapiens, UniProt P00533, T790M); settings: T790M-like-3S, 72 hours
# T21 construct: expressed in transfected cells; host or cells: Ba/F3
# [23] = biological target: T22, EGFR L858R T790M L792H (Homo sapiens, UniProt P00533, L792H/L858R/T790M); settings: T790M-like-3S, 72 hours
# T22 construct: expressed in transfected cells; host or cells: Ba/F3
# Protocol: Data represent the ratio of the IC50 value for a given TKI for cells with a T790M-like-3S EGFR mutation to the IC50 value for cells with wildtype EGFR.
# as §2, §5
# [24] = biological target: T23, EGFR L858R/L792H (Homo sapiens, UniProt P00533, L792H/L858R); settings: PACC; L858R/L792H; Ba/F3; 72 hours
# T23 construct: expressed in transfected cells; host or cells: Ba/F3
smiles,measurement,setting,value
COc1cc2ncnc(Nc3ccc(F)c(Cl)c3)c2cc1NC(=O)/C=C/CN1CCCCC1 [Dacomitinib],ratio of IC50 for cells with mutant EGFR to IC50 for cells with wildtype EGFR (Mut/WT),[1],0.01376
same,ratio of IC50 for cells with mutant EGFR to IC50 for cells with wildtype EGFR (Mut/WT),[2],20.65
same,ratio of IC50 for cells with mutant EGFR to IC50 for cells with wildtype EGFR (Mut/WT),[3],0.001529
same,ratio of IC50 for cells with mutant EGFR to IC50 for cells with wildtype EGFR (Mut/WT),[4],0.03226
same,ratio of IC50 for cells with mutant EGFR to IC50 for cells with wildtype EGFR (Mut/WT),[5],0.001653
same,ratio of IC50 for cells with mutant EGFR to IC50 for cells with wildtype EGFR (Mut/WT),[6],0.3828
same,ratio of IC50 for cells with mutant EGFR to IC50 for cells with wildtype EGFR (Mut/WT),[7],0.001484
same,ratio of IC50 for cells with mutant EGFR to IC50 for cells with wildtype EGFR (Mut/WT),[8],4.871
same,ratio of IC50 for cells with mutant EGFR to IC50 for cells with wildtype EGFR (Mut/WT),[9],0.002249
same,ratio of IC50 for cells with mutant EGFR to IC50 for cells with wildtype EGFR (Mut/WT),[10],0.06272
same,ratio of IC50 for cells with mutant EGFR to IC50 for cells with wildtype EGFR (Mut/WT),[11],45.78
same,ratio of IC50 for cells with mutant EGFR to IC50 for cells with wildtype EGFR (Mut/WT),[12],0.001888
same,ratio of IC50 for cells with mutant EGFR to IC50 for cells with wildtype EGFR (Mut/WT),[13],0.001367
same,ratio of IC50 for cells with mutant EGFR to IC50 for cells with wildtype EGFR (Mut/WT),[14],0.2371
same,ratio of IC50 for cells with mutant EGFR to IC50 for cells with wildtype EGFR (Mut/WT),[15],0.0008794
same,ratio of IC50 for cells with mutant EGFR to IC50 for cells with wildtype EGFR (Mut/WT),[16],89.62
same,ratio of IC50 for cells with mutant EGFR to IC50 for cells with wildtype EGFR (Mut/WT),[17],0.2972
same,ratio of IC50 for cells with mutant EGFR to IC50 for cells with wildtype EGFR (Mut/WT),[18],3.161
same,ratio of IC50 for cells with mutant EGFR to IC50 for cells with wildtype EGFR (Mut/WT),[19],0.2711
same,ratio of IC50 for cells with mutant EGFR to IC50 for cells with wildtype EGFR (Mut/WT),[20],0.2085
same,ratio of IC50 for cells with mutant EGFR to IC50 for cells with wildtype EGFR (Mut/WT),[21],0.006377
same,ratio of IC50 for cells with mutant EGFR to IC50 for cells with wildtype EGFR (Mut/WT),[22],6.061
same,ratio of IC50 for cells with mutant EGFR to IC50 for cells with wildtype EGFR (Mut/WT),[23],8.291
same,ratio of IC50 for cells with mutant EGFR to IC50 for cells with wildtype EGFR (Mut/WT),[24],0.002838
